The values below are quoted from earlier work in patent US6620844B2, “Method for reducing blood insulin levels by reducing in vivo cathepsin L activity” (NewMillennium Pharmaceutical, Inc., priority 2001, dated 2003).

A word on the Ki: it is the dissociation constant of the complex between target and ligand, obtained from inhibition or displacement. In general, IC50 refers to the concentration that inhibits the measured activity by half.

Targets include Cathepsin B (Homo sapiens, UniProt P07858); Cathepsin S (Homo sapiens, UniProt P25774); Cathepsin L (Homo sapiens, UniProt P07711).
Conditions in all cases: cited from earlier work
A further data set addresses T1, Cathepsin K (Homo sapiens, UniProt P43235).
T1 sequence (P43235 115-329): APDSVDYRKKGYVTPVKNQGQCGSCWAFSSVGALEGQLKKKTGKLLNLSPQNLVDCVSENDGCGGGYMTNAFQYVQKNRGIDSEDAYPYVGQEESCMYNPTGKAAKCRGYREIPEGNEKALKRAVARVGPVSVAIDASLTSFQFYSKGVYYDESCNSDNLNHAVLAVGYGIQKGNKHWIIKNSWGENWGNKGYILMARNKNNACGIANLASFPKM

Chain of Cathepsin L (P07711 114-333, species assumed): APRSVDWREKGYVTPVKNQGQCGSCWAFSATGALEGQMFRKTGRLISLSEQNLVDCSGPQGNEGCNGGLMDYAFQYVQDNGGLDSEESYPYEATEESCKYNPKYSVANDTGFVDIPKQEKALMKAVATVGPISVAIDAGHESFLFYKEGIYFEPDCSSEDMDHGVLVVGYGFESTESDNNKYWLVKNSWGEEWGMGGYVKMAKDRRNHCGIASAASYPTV
Chain of Cathepsin S (P25774 115-331, species assumed): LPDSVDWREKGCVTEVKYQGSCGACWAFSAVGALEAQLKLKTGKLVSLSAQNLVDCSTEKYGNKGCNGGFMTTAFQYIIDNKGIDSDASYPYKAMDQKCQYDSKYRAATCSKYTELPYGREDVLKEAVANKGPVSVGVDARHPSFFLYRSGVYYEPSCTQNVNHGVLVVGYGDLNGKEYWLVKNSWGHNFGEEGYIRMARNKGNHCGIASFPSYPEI

Turning to `CC(C)CC(NC(=O)[C@@H](Cc1ccccc1)NC(=O)OCc1ccccc1)C(=O)C=O` (some centres unmarked), the values for the Ki at Cathepsin B and on Cathepsin S were 0.76 nM and 0.185 nM, respectively.

On to `CC(C)C[C@H](NC(=O)N1CCOCC1)C(=O)N[C@H](/C=C/S(=O)(=O)c1ccccc1)CCc1ccccc1`, for which, at Cathepsin S, the inhibition constant (Ki) was 5 nM.

In the case of `N#CN1CCC(NC(=O)Cc2ccccc2)C1` (centres unmarked), the figures for the IC50 at Cathepsin K, at Cathepsin L and on Cathepsin B were 40 nM, 54 nM and 200 nM, respectively.

As to `N#CN1CC(NC(=O)CC2CCCCC2)C1`, the half-maximal inhibitory concentration (IC50) on Cathepsin K is 5 nM; at Cathepsin L it was 6 nM; at Cathepsin B, 150 nM.

With `CC(C)C[C@H](NC(=O)[C@H](CC(C)C)NC(=O)OCc1ccccc1)C(=O)COCc1ccc(-c2ccccc2)cc1`, the figures for the Ki on Cathepsin K, at Cathepsin L and on Cathepsin B were 22 nM, 63 nM and 1310 nM, respectively.

Regarding `O=C[C@H](Cc1c[nH]c2ccccc12)NC(=O)C(Cc1ccccc1)Cc1ccccc1`, the IC50 at Cathepsin L is less than 32 nM; at Cathepsin B it was more than 1000 nM.

As to `CC(C)CC(NC(=O)[C@H](CC(C)C)NC(=O)OCc1ccccc1)C(=O)COCc1ccc(-c2ccccc2)cc1` (some centres unmarked), the Ki at Cathepsin K was 22 nM; on Cathepsin L, 63 nM; on Cathepsin B it was 1310 nM.
